For 30 molecules, IC50 results are on record in US10100058B2, “Fused heterocyclic compounds as CaM kinase inhibitors” (Gilead Sciences, Inc., priority 2016, dated 2018).

The assay addresses recombinant CaMKIIδ (Homo sapiens (Human), UniProt Q13557). Briefly: CaMKIIδ biochemical assay (HTRF). The method, then: CaMKIIδ Biochemical Assay
The biochemical activity of recombinant CaMKIIδ was measured by monitoring the phosphorylation of a target peptide using Homogenous Time Resolved Fluorescence (HTRF) technology from CisBio Bioassays.

The mark [1] stands for this setting: 10 pM CaMKIIδ, 110 nM calmodulin, 12 μM ATP, 1 hour, read-out: CAMKIID-HTRF-384V2 (IC50 - nM).

Like-named read-outs stand apart in the source and are kept apart here.

For the molecule `CCN[C@@H](C)CNC(=O)c1cc(-c2cnn3ccc(-c4cccs4)nc23)nc(N2CC(OC)C2)c1` [Example 173, (S)—N-(2-(ethylamino)propyl)-2-(3-methoxyazetidin-1-yl)-6-(5-(thiophen-2-yl)pyrazolo[1,5-a]pyrimidin-3-yl)isonicotinamide], the IC50 under setting [1] came out at 13 nM.
On to `CCN[C@@H](C)CNC(=O)c1cc(-c2cnn3ccc(-c4cccs4)nc23)nc(N2CC[C@H]2C(=O)NC)c1` [Example 306, N—((S)-2-(ethylamino)propyl)-2-((S)-2-(methylcarbamoyl)azetidin-1-yl)-6-(5-(thiophen-2-yl)pyrazolo[1,5-a]pyrimidin-3-yl)isonicotinamide], for which, under setting [1], the IC50 was determined as 10.6 nM.
Same read-out and setting: for `CCNC(=O)Nc1cc(C(=O)NC[C@H](C)N(CC)CC)cc(-c2cnn3ccc(-c4cccs4)nc23)n1` [Example 185, (S)—N-(2-(diethylamino)propyl)-2-(3-ethylureido)-6-(5-(thiophen-2-yl)pyrazolo[1,5-a]pyrimidin-3-yl)isonicotinamide] the value was 0.11 nM; for `O=C(c1ccnc(-c2cnn3ccc(-c4ccccc4)nc23)c1)N1CCC2CNCC21` (stereo not shown) [Example 92, (hexahydropyrrolo[3,4-b]pyrrol-1(2H)-yl)(2-(5-phenylpyrazolo[1,5-a]pyrimidin-3-yl)pyridin-4-yl)methanone], 32.1 nM; for `CC(C)(O)CNc1cc(C(=O)N2CC3CCC(C2)NC3)cc(-c2cnn3ccc(-c4cccs4)nc23)n1` (stereo not shown) [Example 322, (-3,6-diazabicyclo[3.2.2]nonan-3-yl)(2-((2-hydroxy-2-methylpropyl)amino)-6-(5-(thiophen-2-yl)pyrazolo[1,5-a]pyrimidin-3-yl)pyridin-4-yl)methanone], 5.01 nM.
For the molecule `CCN(CC)[C@@H](C)CNC(=O)c1cc(-c2cnn3ccc(-c4cccs4)nc23)nc(N2CC[C@H]2C(=O)NC)c1` [Example 275, N—((S)-2-(diethylamino)propyl)-2-((S)-2-(methylcarbamoyl)azetidin-1-yl)-6-(5-(thiophen-2-yl)pyrazolo[1,5-a]pyrimidin-3-yl)isonicotinamide], the IC50 stood at 0.2 nM under setting [1] and 0.43 nM (potency against CamKIIδ acquired with in-house assays, reference for selectivity values, read-out: CamKIIδ potency (Table 1)).
With `C[C@@H]1CNCCN1C(=O)c1ccnc(-c2cnn3ccc(-c4cccs4)nc23)c1` [Example 84, (R)-(2-methylpiperazin-1-yl)(2-(5-(thiophen-2-yl)pyrazolo[1,5-a]pyrimidin-3-yl)pyridin-4-yl)methanone], under setting [1], the IC50 came to 17.5 nM.
Same read-out and setting: under `CCN(CC)[C@@H](C)CNC(=O)c1cc(NCCN2CCOCC2)nc(-c2cnn3ccc(-c4cccs4)nc23)c1` [Example 223, (S)—N-(2-(diethylamino)propyl)-2-((2-morpholinoethyl)amino)-6-(5-(thiophen-2-yl)pyrazolo[1,5-a]pyrimidin-3-yl)isonicotinamide] stands 0.14 nM; under `C[C@H](N)CNC(=O)c1ccnc(-c2cnn3ccc(-c4ccccc4)nc23)c1` [Example 44, (S)—N-(2-aminopropyl)-2-(5-phenylpyrazolo[1,5-a]pyrimidin-3-yl)isonicotinamide], 43.1 nM.
On to `CC[C@@H](CNC(=O)c1cc(-c2cnn3ccc(-c4cccs4)nc23)nc(N2CC[C@H]2C(=O)NC)c1)N(CC)CC` (single isomer, unassigned) [Example 356A], for which the IC50 under setting [1] worked out at 0.31 nM.
The same measure, in the same setting: for `CCN[C@@H](C)CNC(=O)c1cc(CC)nc(-c2cnn3ccc(-c4ccccc4)nc23)c1` [Example 119, (S)-2-ethyl-N-(2-(ethylamino)propyl)-6-(5-phenylpyrazolo[1,5-a]pyrimidin-3-yl)isonicotinamide] the value was 71 nM; for `NC[C@H]1CCCCN1C(=O)c1cc(-c2cnn3ccc(-c4ccccc4)nc23)nc(C2CC2)c1` [Example 117, (R)-(2-(aminomethyl)piperidin-1-yl)(2-cyclopropyl-6-(5-phenylpyrazolo[1,5-a]pyrimidin-3-yl)pyridin-4-yl)methanone], 8.08 nM; for `NC[C@@H]1CCCCN1C(=O)c1cc(Cl)nc(-c2cnn3ccc(-c4cccs4)nc23)c1` [Example 113, (S)-(2-(aminomethyl)piperidin-1-yl)(2-chloro-6-(5-(thiophen-2-yl)pyrazolo[1,5-a]pyrimidin-3-yl)pyridin-4-yl)methanone], 41.9 nM.
Consider `CCN(CC)[C@@H](C)CNC(=O)c1cc(NCC(=O)NC)nc(-c2cnn3ccc(-c4cccs4)nc23)c1` [Example 246, (S)—N-(2-(diethylamino)propyl)-2-((2-(methylamino)-2-oxoethyl)amino)-6-(5-(thiophen-2-yl)pyrazolo[1,5-a]pyrimidin-3-yl)isonicotinamide], for which, under setting [1], the IC50 amounted to 0.17 nM.
Take `NC[C@@H]1CCCCN1C(=O)c1cc(Cl)nc(-c2cnn3ccc(-c4ccccc4)nc23)c1` [Example 133, (S)-(2-(aminomethyl)piperidin-1-yl)(2-chloro-6-(5-phenylpyrazolo[1,5-a]pyrimidin-3-yl)pyridin-4-yl)methanone]: the IC50 under setting [1] was 163 nM.
On the same count and under the same terms, under `CCN(CC)C(C)CNC(=O)c1ccnc(-c2cnn3ccc(-c4ccccc4)nc23)c1` (stereo not shown) [Example 37, N-(2-(diethylamino)propyl)-2-(5-phenylpyrazolo[1,5-a]pyrimidin-3-yl)isonicotinamide] stands 7.03 nM; under `CCN(CC)[C@@H](C)CNC(=O)c1cc(N[C@@H](C)C(=O)NC)nc(-c2cnn3ccc(-c4cccs4)nc23)c1` [Example 240, N—((S)-2-(diethylamino)propyl)-2-(((S)-1-(methylamino)-1-oxopropan-2-yl)amino)-6-(5-(thiophen-2-yl)pyrazolo[1,5-a]pyrimidin-3-yl)isonicotinamide], 1.07 nM; under `CCN(CC)[C@@H](C)CNC(=O)c1cc(-c2cnn3ccc(-c4cccs4)nc23)nc(N2CCNC(=O)C2)c1` [Example 314, (S)—N-(2-(diethylamino)propyl)-2-(3-oxopiperazin-1-yl)-6-(5-(thiophen-2-yl)pyrazolo[1,5-a]pyrimidin-3-yl)isonicotinamide], 0.14 nM.
The same measure, in the same setting: under `CCN(CC)C(CNC(=O)c1ccnc(-c2cnn3ccc(-c4ccccc4)nc23)c1)C(C)C` (stereo not shown) [Example 61, N-(2-(diethylamino)-3-methylbutyl)-2-(5-phenylpyrazolo[1,5-a]pyrimidin-3-yl)isonicotinamide] stands 3.6 nM; under `CCN(CC)CCNC(=O)c1cc(-c2cnn3ccc(-c4cccs4)nc23)nc(N2CC[C@H]2C(=O)NC)c1` [Example 360, (S)—N-(2-(diethylamino)ethyl)-2-(2-(methylcarbamoyl)azetidin-1-yl)-6-(5-(thiophen-2-yl)pyrazolo[1,5-a]pyrimidin-3-yl)isonicotinamide], 2.98 nM; under `CCN(CC)[C@@H](C)CNC(=O)c1cc(-c2cnn3ccc(-c4cccs4)nc23)nc(N2CC[C@H]2C(=O)N2CCS(=O)(=O)CC2)c1` [Example 303, N—((S)-2-(diethylamino)propyl)-2-((S)-2-(1,1-dioxidothiomorpholine-4-carbonyl)azetidin-1-yl)-6-(5-(thiophen-2-yl)pyrazolo[1,5-a]pyrimidin-3-yl)isonicotinamide], 0.16 nM.
With `O=C(NCC12CCCN1CCC2)c1ccnc(-c2cnn3ccc(-c4cccs4)nc23)c1` [Example 3, N-((hexahydro-1H-pyrrolizin-7a-yl)methyl)-2-(5-(thiophen-2-yl)pyrazolo[1,5-a]pyrimidin-3-yl)isonicotinamide], the IC50 under setting [1] came to 5.55 nM.
With `CCC(CNC(=O)c1ccnc(-c2cnn3ccc(-c4ccccc4)nc23)c1)NCC1CC1` (stereo not shown) [Example 50, N-(2-((cyclopropylmethyl)amino)butyl)-2-(5-phenylpyrazolo[1,5-a]pyrimidin-3-yl)isonicotinamide], under setting [1], the IC50 is 8.52 nM.
On to `O=C(c1ccnc(-c2cnn3ccc(-c4cccs4)nc23)c1)N1CC2CCC[C@@H](C1)NC2` [Example 77, ((1S)-3,9-diazabicyclo[3.3.2]decan-3-yl)(2-(5-(thiophen-2-yl)pyrazolo[1,5-a]pyrimidin-3-yl)pyridin-4-yl)methanone], for which the IC50 under setting [1] was 2.7 nM.
The same measure, in the same setting: under `CCN(CC)[C@@H](C)CNC(=O)c1cc(-c2cnn3ccc(-c4cccs4)nc23)nc(N2CC[C@@H](N)C2)c1` [Example 318, 2-((R)-3-aminopyrrolidin-1-yl)-N—((S)-2-(diethylamino)propyl)-6-(5-(thiophen-2-yl)pyrazolo[1,5-a]pyrimidin-3-yl)isonicotinamide] stands 0.05 nM.
The same measure, in the same setting: under `CCN(CC)[C@@H](C)CNC(=O)c1cc(-c2cnn3ccc(-c4cccs4)nc23)nc(N2CC(S(C)(=O)=O)C2)c1` [Example 149, (S)—N-(2-(diethylamino)propyl)-2-(3-(methylsulfonyl)azetidin-1-yl)-6-(5-(thiophen-2-yl)pyrazolo[1,5-a]pyrimidin-3-yl)isonicotinamide] stands 0.14 nM.
With `O=C(NC[C@@H]1CCCN1)c1ccnc(-c2cnn3ccc(-c4cccs4)nc23)c1` [Example 34, (S)—N-(pyrrolidin-2-ylmethyl)-2-(5-(thiophen-2-yl)pyrazolo[1,5-a]pyrimidin-3-yl)isonicotinamide], the IC50 under setting [1] was determined as 12.4 nM.
On the same count and under the same terms, for `CCN[C@@H](C)CNC(=O)c1cc(Cl)nc(-c2cnn3ccc(-c4ccccc4)nc23)c1` [Example 124, (S)-2-chloro-N-(2-(ethylamino)propyl)-6-(5-phenylpyrazolo[1,5-a]pyrimidin-3-yl)isonicotinamide] the value was 17.1 nM.
On to `CCN(CC)[C@@H](C)CNC(=O)c1cc(NCC(N)=O)nc(-c2cnn3ccc(-c4cccs4)nc23)c1` [Example 238, (S)-2-((2-amino-2-oxoethyl)amino)-N-(2-(diethylamino)propyl)-6-(5-(thiophen-2-yl)pyrazolo[1,5-a]pyrimidin-3-yl)isonicotinamide], for which the IC50 under setting [1] is 0.28 nM.
Still for that read-out and setting: under `CCN(CC)[C@@H](C)CNC(=O)c1cc(N[C@H](C)CO)nc(-c2cnn3ccc(-c4cccs4)nc23)c1` [Example 199, N—((S)-2-(diethylamino)propyl)-2-(((R)-1-hydroxypropan-2-yl)amino)-6-(5-(thiophen-2-yl)pyrazolo[1,5-a]pyrimidin-3-yl)isonicotinamide] stands 0.32 nM.
